The values below come from US20140107021A1 (priority 2010, published 2014).

Where two headings read alike, the source gives them in different places.

One experiment concerns the target T1, GIP receptor (Homo sapiens, UniProt P48546).
T1 construct: expressed in transfected cells; host or cells: HEK293
T1 sequence (P48546 22-466): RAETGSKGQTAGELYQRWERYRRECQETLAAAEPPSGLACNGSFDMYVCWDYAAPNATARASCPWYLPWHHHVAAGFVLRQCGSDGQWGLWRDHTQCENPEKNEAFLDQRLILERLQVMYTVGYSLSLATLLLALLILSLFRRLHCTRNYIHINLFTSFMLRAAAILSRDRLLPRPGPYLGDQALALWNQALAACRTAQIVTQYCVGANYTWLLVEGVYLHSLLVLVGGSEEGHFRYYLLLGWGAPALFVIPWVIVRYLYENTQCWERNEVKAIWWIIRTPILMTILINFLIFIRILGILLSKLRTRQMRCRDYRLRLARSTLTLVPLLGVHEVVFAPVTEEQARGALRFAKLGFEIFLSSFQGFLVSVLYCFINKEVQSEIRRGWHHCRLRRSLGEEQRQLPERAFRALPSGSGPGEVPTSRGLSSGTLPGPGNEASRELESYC
The experiment in a line: cAMP induction at the GIP receptor (agonist activity), luciferase reporter assay in HEK293 cells. In kind it is cell-based. To be noted: read-out: GIPR EC50. From the text:
(§1) HEK293 cells co-transfected with the receptor and luciferase gene linked to a cAMP responsive element were employed for the bioassay.
(§2) All EC50s and IC50s are reported in the following examples in nM, unless indicated otherwise.

The format of experiment [1] is in vivo, C57Bl/6 mice. To be noted: 30 nmol/kg subcutaneously daily for one week.
Experiment [2] in a line: Example 10: MT-263 under varied administration regimen in diet-induced obesity mice, 6 day study. The format is in vivo, Diet-induced obesity (DIO) mice. As to conditions: injected on a daily basis (10 nmol/kg), compared with every 2 or 3 days. The method, then: Diet-induced obesity (DIO) mice (N=8, 10 mice per group) were injected during the course of the 6 day study as follows: […]

For a further experiment, the target named is glucagon receptor (Homo sapiens, UniProt P47871). The experiment in a line: cAMP induction at the glucagon receptor (agonist activity), luciferase reporter assay in HEK293 cells. In kind it is cell-based. Further details: expressed in transfected cells; host or cells: HEK293. To be noted: read-out: GR EC50.
From the text: as §1, §2
(In general: In a reporter assay the amount or activity of a reporter protein is the signal.)

For the next experiment, the target named is T2, GLP-1 receptor (Homo sapiens, UniProt P43220).
T2 construct: expressed in transfected cells; host or cells: HEK293
The experiment in a line: cAMP induction at the GLP-1 receptor (agonist activity), firefly luciferase reporter assay in HEK293 cells. The format is cell-based. To be noted: Table 3; read-out: GLP-1R EC50.
From the text: as §1, §2

Sequence of glucagon receptor (P47871 26-477): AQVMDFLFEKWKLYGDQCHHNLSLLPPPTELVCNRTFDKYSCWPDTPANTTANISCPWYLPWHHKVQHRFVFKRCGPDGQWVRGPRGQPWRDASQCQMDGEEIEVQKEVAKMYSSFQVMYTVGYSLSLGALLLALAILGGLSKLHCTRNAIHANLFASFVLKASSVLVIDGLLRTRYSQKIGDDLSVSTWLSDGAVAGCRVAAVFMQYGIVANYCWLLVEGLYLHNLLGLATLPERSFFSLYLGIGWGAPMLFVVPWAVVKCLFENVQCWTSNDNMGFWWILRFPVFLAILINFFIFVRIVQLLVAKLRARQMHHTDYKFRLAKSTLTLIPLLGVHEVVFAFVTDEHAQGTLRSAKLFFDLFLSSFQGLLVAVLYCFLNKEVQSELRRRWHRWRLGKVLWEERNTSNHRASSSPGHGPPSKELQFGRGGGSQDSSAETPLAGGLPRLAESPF
T2 sequence (P43220 24-463): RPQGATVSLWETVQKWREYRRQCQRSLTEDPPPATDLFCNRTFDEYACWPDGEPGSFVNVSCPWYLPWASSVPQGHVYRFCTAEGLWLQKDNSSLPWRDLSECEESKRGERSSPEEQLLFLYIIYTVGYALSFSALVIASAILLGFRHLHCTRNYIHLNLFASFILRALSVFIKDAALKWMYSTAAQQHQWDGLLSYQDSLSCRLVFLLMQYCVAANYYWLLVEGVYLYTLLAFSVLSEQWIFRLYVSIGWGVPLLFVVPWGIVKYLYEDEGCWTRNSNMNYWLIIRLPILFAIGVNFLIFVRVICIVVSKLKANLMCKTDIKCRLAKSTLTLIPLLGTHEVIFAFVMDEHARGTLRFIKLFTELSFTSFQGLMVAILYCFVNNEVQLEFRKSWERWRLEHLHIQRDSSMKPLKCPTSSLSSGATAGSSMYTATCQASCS

Broadly, the EC50 is the midpoint of the concentration-response curve. As to `CC[C@H](C)[C@H](NC(=O)[C@H](CO)NC(=O)[C@H](Cc1ccc(O)cc1)NC(=O)[C@H](CC(=O)O)NC(=O)[C@H](CO)NC(=O)[C@@H](NC(=O)[C@H](Cc1ccccc1)NC(=O)[C@@H](NC(=O)CNC(=O)[C@H](CCC(=O)O)NC(=O)C(C)(C)NC(=O)[C@@H](N)Cc1ccc(O)cc1)[C@@H](C)O)[C@@H](C)O)C(=O)N[C@@H](Cc1ccc(O)cc1)C(=O)N[C@@H](CC(C)C)C(=O)N[C@@H](CC(=O)O)C(=O)N[C@@H](CCCCN)C(=O)N[C@@H](CCC(N)=O)C(=O)N[C@@H](C)C(=O)N[C@@H](C)C(=O)NC(C)(C)C(=O)N[C@@H](CCC(=O)O)C(=O)N[C@@H](Cc1ccccc1)C(=O)N[C@H](C(=O)N[C@@H](CC(N)=O)C(=O)N[C@@H](Cc1c[nH]c2ccccc12)C(=O)N[C@@H](CC(C)C)C(=O)N[C@@H](CC(C)C)C(=O)N[C@@H](C)C(=O)NCC(=O)NCC(=O)N1CCC[C@H]1C(=O)N[C@@H](CO)C(=O)N[C@@H](CO)C(=O)NCC(=O)N[C@@H](C)C(=O)N1CCC[C@H]1C(=O)N1CCC[C@H]1C(=O)N1CCC[C@H]1C(=O)N[C@@H](CO)C(=O)N[C@@H](CCCCN)C(N)=O)C(C)C` [mt-263, Y1Aib2E3I12K16Q17A18Aib20E21N24-LAG27-29-CEX-K], the EC50 on GIP receptor (Table 3) stood at 0.0054 nM; at GIP receptor (Table 4), 0.0033 nM; at glucagon receptor (Table 3) it was 4.04 nM; on glucagon receptor (Table 4) it was 3.14 nM; on GLP-1 receptor it was 0.01 nM. Also, the “change in blood glucose levels over the course of the 7-day study” value in experiment [1] is “greatest change in blood glucose levels”. Moreover, the “weight loss compared with the Exendin-4-like positive control peptide” value in experiment [1] is “substantially greater than the Exendin-4-like positive control peptide”. In experiment [1], the “weight loss over the course of the 7-day study” value is reported as “significant weight loss”. For the same compound, the “decrease in blood glucose levels” value in experiment [2] is listed as “biggest decrease in blood glucose levels”.
